Common to all, as to format: cell-based
One assay deals with human breast tumor cells. Kind of assay: Hormonal therapy microtiter assay, inhibition of cell proliferation (Example 5).
Assay [1] has as its system human ovarian tumor cells. The experiment in a line: Combination chemotherapy microtiter assay, Taxol and carboplatin (Example 4). The conditions noted are these: then 48 hours, four tumor specimens.
Protocol: Twenty-four (24) hours post-plating, the chemotherapeutic agent Taxol was applied to the wells in the microtiter plates. […] Rows 5 and 9 served as a control. The Taxol exposure time was two hours. Twenty-four hours later, the cells in the wells were exposed to carboplatin for two hours. The tumor cells in the wells were then incubated for another 48 hours.
Cell number relative to control was determined.
The subject of assay [2] is human brain tumor and human ovarian tumor cells. Kind of assay: Combined modality drug/radiation microtiter assay (Example 7). Conditions: Taxol 0.5-25.0 μM with 2 Gy, or Taxol 5 μM with 1 Gy-6 Gy; through 5 days post-treatment; four tumor specimens.
Protocol: Twenty-four (24) hours post-plating, cells in the microtiter plate wells were exposed to the chemotherapeutic agent Taxol. One set of plates was designed to have escalating Taxol doses with (0.5-25.0 μM) with a fixed radiation dose (2 Gy). A second set of plates was designed to have a fixed Taxol dose (5 μM) with an escalating radiation dose (1 Gy-6 Gy). The cells in the plates were irradiated using a Siemans Stabilipan X-ray machine operating at 250 kVp, 15 mA with a dose rate of 75 rad/minute.
For each of the two treatment schema, cell number per well was monitored as a function of time through 5 days post-treatment. Cell number relative to controls was determined and survival curves were fit.

Regarding `CC/C(=C(\c1ccccc1)c1ccc(OCCN(C)C)cc1)c1ccccc1` [Tamoxifen], in the assay with human breast tumor cells (10 nM to 20 μM, six doses, 24 hours exposure, then 72 hours, four breast tumor specimens), the “inhibition of cell proliferation (cell number relative to control)” value was “two of the four breast specimens tested showed an inhibition of cell proliferation”. The “concentration range in which the responses occurred” value in the assay with human breast tumor cells (tested range 10 nM to 20 μM) was “mid to high”.

On to `CC(=O)O[C@H]1C(=O)[C@@]2(C)[C@H]([C@H](OC(=O)c3ccccc3)[C@]3(O)C[C@H](OC(=O)[C@H](O)[C@@H](NC(=O)c4ccccc4)c4ccccc4)C(C)=C1C3(C)C)[C@]1(OC(C)=O)CO[C@@H]1C[C@@H]2O` [Taxol], for which the “cell number relative to control, escalating Taxol/fixed carboplatin” value in assay [1] (Taxol 1.0, 5.0, 25 μM for two hours, carboplatin 200 μM for two hours 24 h later) is “dose response relationship was observed”. Moreover, the “cell killing by drug combined with radiation (cell number relative to controls, survival curves)” value in assay [2] was “Both additive and synergistic cell killing”.

On to `N.N.O=C([O-])C1(C(=O)[O-])CCC1.[Pt+2]` [carboplatin], for which the “cell number relative to control, fixed Taxol/escalating carboplatin” value in assay [1] (Taxol 5 μM for two hours, carboplatin 50, 200, 1000 μM for two hours 24 h later) was “dose response relationship was observed”.
